Data from ChEMBL document CHEMBL5512632, “Unlocking the potential of 1,4-naphthoquinones: A comprehensive review of their anticancer properties” (Eur J Med Chem, 2024).

Columns and labels:
Calu-1 = assay: Cytotoxicity against human Calu-1 cells incubated for 48 hrs by MTT assay; type: functional, cell-based; conditions: Calu-1, 48 h
HEC-1-A = assay: Cytotoxicity against human HEC-1-A cells incubated for 48 hrs by MTT assay; type: functional, cell-based
SK-MEL-28 = assay: Cytotoxicity against human SK-MEL-28 cells incubated for 48 hrs by MTT assay; type: functional, cell-based; conditions: SK-MEL-28, 48 h
MDA-MB-231 = assay: Cytotoxicity against human MDA-MB-231 cells incubated for 48 hrs by XTT assay; type: functional, cell-based; conditions: MDA-MB-231, 48 h
MOLT-3 = assay: Cytotoxicity against human MOLT-3 cells incubated for 48 hrs by XTT assay; type: functional, cell-based; conditions: MOLT-3, 48 h
A549 [1] = assay: Cytotoxicity against human A549 cells incubated for 20 hrs by MTT assay; type: functional, cell-based; conditions: A549, 20 h
MCF7 [2] = assay: Growth inhibition of human MCF7 cells by Sulforhodamine B assay; type: functional
UACC-62 = assay: Growth inhibition of human UACC-62 cells by Sulforhodamine B assay; type: functional
TK-10 = assay: Growth inhibition of human TK-10 cells by Sulforhodamine B assay; type: functional
PC-3 = assay: Growth inhibition of human PC-3 cells by Sulforhodamine B assay; type: functional
HT-29 = assay: Antiproliferative activity against human HT-29 cells assessed as reduction in cell viability incubated for 24 hrs by MTT assay; type: functional, cell-based; conditions: HT-29, 24 h
A549 [3] = assay: Antiproliferative activity against human A549 cells assessed as inhibition of cell growth incubated for 24 hrs by trypan blue exclusion assay; type: functional, cell-based; conditions: A549, 24 h
Hep 3B2 = assay: Antiproliferative activity against human Hep3B cells assessed as inhibition of cell growth incubated for 24 hrs by MTT assay; type: functional, cell-based
HepG2 = assay: Antiproliferative activity against human HepG2 cells assessed as inhibition of cell growth incubated for 24 hrs by MTT assay; type: functional, cell-based; conditions: HepG2, 24 h
Huh-7 = assay: Antiproliferative activity against human Huh-7 cells assessed as inhibition of cell growth incubated for 24 hrs by MTT assay; type: functional, cell-based; conditions: Huh-7, 24 h
[4] = Antiproliferative activity against human NB-39-nu cells assessed as inhibition of cell growth incubated for 48 hrs by MTT assay; type: functional, cell-based
SK-N-SH = assay: Antiproliferative activity against human SK-N-SH cells assessed as inhibition of cell growth incubated for 48 hrs by MTT assay; type: functional, cell-based
[5] = Antiproliferative activity against human LA-N-1 cells assessed as inhibition of cell growth incubated for 48 hrs by MTT assay; type: functional, cell-based; conditions: LAN1, 48 h
IMR-32 = assay: Antiproliferative activity against human IMR-32 cells assessed as inhibition of cell growth incubated for 48 hrs by MTT assay; type: functional, cell-based; conditions: IMR-32, 48 h
DU-145 [6] = assay: Cytotoxicity against human DU-145 cells assessed as inhibition of cell growth incubated for 48 hrs by MTT assay; type: functional, cell-based; conditions: DU-145, 48 h
A549 [7] = assay: Cytotoxicity against human A549 cells assessed as inhibition of cell growth incubated for 48 hrs by MTT assay; type: functional, cell-based; conditions: A549, 48 h
HeLa [8] = assay: Cytotoxicity against human HeLa cells assessed as inhibition of cell growth incubated for 48 hrs by MTT assay; type: functional, cell-based
B16 = assay: Cytotoxicity against mouse B16 cells assessed as inhibition of cell growth incubated for 48 hrs by MTT assay; type: functional, cell-based; conditions: B16, 48 h
MCF7 [9] = assay: Cytotoxicity against human MCF7 cells assessed as inhibition of cell growth incubated for 48 hrs by MTT assay; type: functional, cell-based; conditions: MCF7, 48 h
RD = assay: Antiproliferative activity against human RD cells assessed as inhibition of cell growth incubated for 24 hrs by celltiter blue reagent based fluorimetric analysis; type: functional
DU-145 [10] = assay: Antiproliferative activity against human DU-145 cells assessed as inhibition of cell growth incubated for 24 hrs by celltiter blue reagent based fluorimetric analysis; type: functional; conditions: DU-145, 24 h
A549 [11] = assay: Antiproliferative activity against human A549 cells assessed as inhibition of cell growth incubated for 24 hrs by celltiter blue reagent based fluorimetric analysis; type: functional; conditions: A549, 24 h
HeLa [12] = assay: Antiproliferative activity against human HeLa cells assessed as inhibition of cell growth incubated for 24 hrs by sulforhodamine B assay; type: functional, cell-based
SCC-4 = assay: Cytotoxicity against human SCC-4 cells assessed as inhibition of cell growth incubated for 48 hrs by MTT reagent based spectrophotometric analysis; type: functional; conditions: SCC-4, 48 h
SCC-9 = assay: Cytotoxicity against human SCC-9 cells assessed as inhibition of cell growth incubated for 48 hrs by MTT reagent based spectrophotometric analysis; type: functional; conditions: SCC-9, 48 h
SCC-25 = assay: Cytotoxicity against human SCC-25 cells assessed as inhibition of cell growth incubated for 48 hrs by MTT reagent based spectrophotometric analysis; type: functional; conditions: SCC-25, 48 h
[13] = Antiproliferative activity against human CaLo cells assessed as inhibition of cell growth by crystal violet staining based spectrophotometric assay; type: functional
C-33-A = assay: Antiproliferative activity against human C-33-A cells assessed as inhibition of cell growth by crystal violet staining based spectrophotometric assay; type: functional
SiHa = assay: Antiproliferative activity against human SiHa cells assessed as inhibition of cell growth by crystal violet staining based spectrophotometric assay; type: functional

## O=C1C(Cl)=C(NCCN2CCOCC2)C(=O)c2ccccc21
Calu-1
  IC50: 4.39 µM
HEC-1-A
  IC50: 14.5 µM
SK-MEL-28
  IC50: 10.3 µM

## Cc1ccc(NC2=C(Cl)C(=O)c3ccccc3C2=O)cc1
MDA-MB-231
  IC50: 10.7 µM
MOLT-3
  IC50: 4.3 µM

## O=C1C(Cl)=C(Nc2ccccc2)C(=O)c2ccccc21
A549 [1]
  IC50: 5.8 µM

## O=C1C(Sc2ccc3ccccc3c2)=C(Sc2ccc3ccccc3c2)C(=O)c2ccccc21
MCF7 [2]
  GI50: 7.75 µM
UACC-62
  GI50: 9.92 µM
TK-10
  GI50: 8.26 µM
PC-3
  GI50: 7.21 µM

## CCOC(=O)c1cn(C2=CC(=O)c3ccccc3C2=O)nn1
HT-29
  IC50: 3.2 µM

## CCCC[S+]([O-])C1=CC(=O)c2ccccc2C1=O (centres undefined)
A549 [3]
  IC50: 2.08 µM

## CCCCCCCC[S+]([O-])C1=CC(=O)c2ccccc2C1=O (centres undefined)
Hep 3B2
  IC50: 0.96 µM
HepG2
  IC50: 8.56 µM
Huh-7
  IC50: 1.96 µM

## COCCSC1=C(C)C(=O)c2ccccc2C1=O
[4]
  IC50: 10.7 µM
SK-N-SH
  IC50: 3.45 µM
[5]
  IC50: 1.55 µM
IMR-32
  IC50: 2.43 µM

## CCc1ccc(-c2cn(CCNC3=C(C)C(=O)c4ccccc4C3=O)nn2)cc1
DU-145 [6]
  IC50: 8.02 µM
A549 [7]
  IC50: 9.19 µM
HeLa [8]
  IC50: 26.2 µM
B16
  IC50: 20.2 µM
MCF7 [9]
  IC50: 8.73 µM

## O=C1C=C(CCCCCCCCCC[P+](c2ccccc2)(c2ccccc2)c2ccccc2)C(=O)c2ccccc21
RD
  IC50: 0.02 µM
DU-145 [10]
  IC50: 0.4 µM
A549 [11]
  IC50: 0.5 µM

## O=C1C(Cl)=C(Nc2ccc(O)cc2)C(=O)c2ccccc21
HeLa [12]
  IC50: 3.2 µM

## COC(=O)N(Cc1ccccc1)C(C1=C(O)C(=O)c2ccccc2C1=O)c1ccc(Cl)cc1 (centres undefined)
SCC-4
  IC50: 92.8 µM
SCC-9
  IC50: 56.2 µM
SCC-25
  IC50: 87.3 µM

## O=C1C(Cl)=C(NC(Cc2ccc(O)cc2)C(=O)O)C(=O)c2ccccc21 (centres undefined)
[13]
  IC50: 2.87 µM
C-33-A
  IC50: 0.001 µM
SiHa
  IC50: 6.83 µM
